Assay results: patent US20060229242A1, “Composition comprising a pulmonary surfactant and a pde2 inhibitor” (Altana Phazma AG, priority 2003, published 2006)

Tested on: Male Wistar rats
Assay: Rat lung lavage experiment: arterial blood oxygenation after repeated saline lung lavage
Assay type: in vivo
Conditions: rat lung lavage model; intratracheal, 1.2 mL, 60 min after lavage; PODPO 100 nM alone, or VENTICUTE 12.5 mgPL/kg with PODPO 100 nM (p<0.05 to p<0.001 versus VENTICUTE alone); up to 150 min
Protocol: (§1) Male Wistar rats were prepared according to Example 5 and lungs were ravaged 5-9 times with NaCl 0.9% (=>PaO2˜50-100 mmHg). After 60 min NaCl 0.9% (open circles), VENTICUTE 12.5 mgPL/kg (filled squares, PL=Phospholipids), PODPO (9-(6-Phenyl-2-oxohex-3-yl)-2-(3,4-dimethoxybenzyl)-purin-6-one) 100 nM (stars), or VENTICUTE 12.5 mgPL/kg in combination with PODPO 100 nM (open squares) was administered intratracheally (administration volume 1.2 mL). Arterial blood oxygenation (PaO2) was determined every 30 min up to 150 min after drug administration (t=210 min). […] Data are shown as mean±SEM. * p<0.05, *** p<0.001 versus VENTICUTE 12.5 mgPL/kg.
as §1, with “rats (220-250 g)” for “rats”, “anaesthetized, catheterised” for “prepared according”, “withdraw arterial blood,” for “Example 5”, “and ventilated with pure oxygen (=>PaO2˜500-550 mmHg). 30 min later” for “and”, “lavaged” for “ravaged”

## COc1ccc(Cc2nc3c(ncn3C(CCCc3ccccc3)C(C)=O)c(=O)[nH]2)cc1OC (stereo not shown) [PODPO, 9-(6-Phenyl-2-oxohex-3-yl)-2-(3,4-dimethoxybenzyl)-purin-6-one]
  Influence on arterial blood oxygenation (PaO2), in words: no influence on oxygenation
